≈ marks a conversion by molar mass, not a printed value.
Legend:
[1] = test system: VEGF-induced BRB and BAB breakdown in rabbit eye; assay: Rabbit model of VEGF-induced BRB and BAB breakdown, scanning ocular fluorophotometry, aqueous steroid suspensions (Example 1); assay type: in vivo; conditions: for inhibition of VEGF-induced BAB breakdown (iris leakage, anterior segment) / inhibition of VEGF-induced BRB breakdown (retinal leakage, posterior segment): 1 mg (100 μl of 10 mg/ml suspension) intravitreal, VEGF one month thereafter, fluorophotometry 48 hrs after VEGF; for block of VEGF-induced BAB breakdown (iris leakage) / block of VEGF-induced BRB breakdown (retinal leakage): rabbit, corticosteroid administered systemically or intravitreally
Description: An in vivo (rabbit eye) experiment was carried out with liquid glucocorticoid derivative formulations. Recombinant vascular endothelial growth factor (VEGF) was obtained from a supplier (R&D Systems). Female Dutch Belt rabbits were anaesthetized with isoflurane inhalation and topical 0.5% proparacaine hydrochloride, and intravitreal injection of one eye with 500 ng VEGF in sterile phosphate buffered saline (PBS) containing 0.1% bovine serum albumin was performed using a 28 gauge ½ inch needle. The other eye is given the same volume of the vehicle, without the VEGF.
The extent of VEGF-induced BRB and BAB breakdown of the blood retinal barrier and the blood aqueous barrier was measured by scanning ocular fluorophotemetry (Fluorotron Master, Ocumetrics Inc.); at various times following intravitreal injection. In this model a fluorescent label is administered intravenously, following by determination of the amount of fluorescenin in the anterior and posterior segment and an indication of iridial and retinal leakage, respectively.
VEGF injection mimics this pathological condition.
Sodium fluorescein in 1 ml saline was injected via the marginal ear vein at a concentration of 50 mg/kg, and ocular fluorescein levels in the vitreoretinal chamber and the anterior chamber was determined 50 minutes later.
Ten milligrams of each compound is added to 1 ml of sterile phosphate-buffered saline (PBS; ph 7.4). At day 0, 100 μl of a 10 mg/ml suspension of each steroid is injected into the vitreous of a rabbit eye. The PBS vehicle is injected into the other eye. VEGF is then injected at a pre-determined time (one month) thereafter, and BRB and BAB breakdown were measured by scanning ocular fluorophotometry 48 hrs later as described in Edelman et al., EXP.

cystic macular edema = assay: Treatment of macular edema with a solid GD implant (Example 4); assay type: in vivo, human
Description: A person diagnosed with cystic macular edema treated by administration of a biodegradable drug delivery system administered to each eye of the patient. […] A similar implant is administered subconjunctivally to the patient's right eye. […] No increase in intraocular pressure is seen one week after administration.

physchem = assay: physchem
Source text: Log P is the lipophilicity coefficient, where P is the octonol/water partition coefficient.

[2] = test system: wet age-related macular degeneration; assay: Treatment of ARMD with a viscous GD formulation (Example 5); assay type: in vivo, human; conditions: intravitreal 100 μl hyaluronic acid solution with about 1000 μg crystals in suspension
Description: A person with wet age-related macular degeneration is treated with an intravitreal injection of 100 μl of a hyaluronic acid solution containing about 1000 μg of fluticasone propionate crystals in suspension.

Water solubility = assay type: physicochemical
[3] = after about 3 months from the surgery, 2 mg PLGA implant with about 1000 μg drug
[4] = 500 ng VEGF intravitreal, 48 hours after injection, 50 minutes after fluorescein

CCC(=O)OCC(=O)[C@@]1(OC(=O)CC)[C@@H](C)C[C@H]2[C@@H]3CCC4=CC(=O)C=C[C@]4(C)[C@@]3(Cl)[C@@H](O)C[C@@]21C [Beclomethasone dipropionate, beclomethasone 17,21-dipropionate]
inhibition of VEGF-induced BAB breakdown (iris leakage, anterior segment) ([1]; rabbit eye): no effect
inhibition of VEGF-induced BRB breakdown (retinal leakage, posterior segment) ([1]; rabbit eye): completely blocks
duration of complete inhibition of VEGF-mediated responses ([1]; rabbit eye, 100 μl of 10 mg/ml intravitreal): greater than 3 months
appearance of the retina (cystic macular edema; [3]): appears normal
degeneration of the optic nerve (cystic macular edema; [3]): appears to be reduced
increase in intraocular pressure (cystic macular edema; one week after administration, 2 mg PLGA implant with about 1000 μg drug): No increase
reduction in retinal thickness (cystic macular edema; right eye (implant subconjunctival) versus left eye (intravitreal), 2 mg implant, about 1000 μg PLGA and about 1000 μg drug): more rapid reduction
Lipophicity (log P) (physchem): 4.40
logP (physchem): 4.4

C[C@@H]1C[C@H]2[C@@H]3CCC4=CC(=O)C=C[C@]4(C)[C@@]3(F)[C@@H](O)C[C@]2(C)[C@@]1(O)C(=O)CO [Dexamethasone]
Lipophicity (log P) (physchem): 1.95
logP (physchem): 1.95

CCC(=O)O[C@]1(C(=O)SCF)[C@H](C)C[C@H]2[C@@H]3C[C@H](F)C4=CC(=O)C=C[C@]4(C)[C@@]3(F)[C@@H](O)C[C@@]21C [Fluticasone propionate]
inhibition of VEGF-induced BAB breakdown (iris leakage, anterior segment) ([1]; rabbit eye): no effect
inhibition of VEGF-induced BRB breakdown (retinal leakage, posterior segment) ([1]; rabbit eye): completely blocks
quality of life reported by patient [2]: overall improvement
rate of neovascularization and related inflammation ([2]; within one month): acceptable reduction
solubility (Water solubility; water): 0.14 µg/mL (≈ 0.28 µM)
Lipophicity (log P) (physchem): 4.20
logP (physchem): 4.2

CC1(C)O[C@@H]2C[C@H]3[C@@H]4CCC5=CC(=O)C=C[C@]5(C)[C@@]4(F)[C@@H](O)C[C@]3(C)[C@]2(C(=O)CO)O1 [Triamcinolone acetonide]
inhibition of VEGF-induced BAB breakdown (iris leakage, anterior segment) ([1]; rabbit eye): completely inhibited
inhibition of VEGF-induced BRB breakdown (retinal leakage, posterior segment) ([1]; rabbit eye): completely inhibited
block of VEGF-induced BAB breakdown (iris leakage) [1]: completely blocked
block of VEGF-induced BRB breakdown (retinal leakage) [1]: completely blocked
Water Solubility (Water solubility): 21 µg/mL
logP (physchem; octanol/water): 2.53

C[C@H]1C[C@H]2[C@@H]3CCC4=CC(=O)C=C[C@]4(C)[C@@]3(Cl)[C@@H](O)C[C@]2(C)[C@@]1(O)C(=O)CO [beclomethasone]
inhibition of VEGF-induced BAB breakdown (iris leakage, anterior segment) ([1]; rabbit eye): inhibited
inhibition of VEGF-induced BRB breakdown (retinal leakage, posterior segment) ([1]; rabbit eye): inhibited
block of VEGF-induced BAB breakdown (iris leakage) [1]: completely blocked
block of VEGF-induced BRB breakdown (retinal leakage) [1]: completely blocked

VEGF
increase in fluorescein contained in the aqueous (BAB breakdown) compared to normal untreated rabbit eyes [1, 4]: approximately 6 fold
increase in fluorescein contained in the vitreous (BRB breakdown) compared to normal untreated rabbit eyes [1, 4]: approximately 18 fold
